Legend:
[1] = system: JAK1-dependent STAT6 phosphorylation downstream of IL-13 stimulation in TF-1 human erythroleukemia cells; experiment: JAK1 pathway assay in TF-1 cells (IL-13-pSTAT6, MSD); type: cell-based; conditions: Homo sapiens, TF-1, TF-1 cells, read-out: IL13-pSTAT6 EC50_TF-1
Summary of the method: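 BEAS-2B: complete growth medium, compound 1 hr at 37° C. TF-1: GM-CSF-starved overnight, serum-free OptiMEM, compound 30 min.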

[2] = target: isolated recombinant JAK1 kinase domain (Homo sapiens (Human), UniProt P23458); experiment: JAK1 enzyme assay (Caliper LabChip, peptide phosphorylation); type: biochemical; conditions: isolated recombinant JAK1 kinase domain, 25 μM ATP
Sequence of isolated recombinant JAK1 kinase domain (P23458 875-1153): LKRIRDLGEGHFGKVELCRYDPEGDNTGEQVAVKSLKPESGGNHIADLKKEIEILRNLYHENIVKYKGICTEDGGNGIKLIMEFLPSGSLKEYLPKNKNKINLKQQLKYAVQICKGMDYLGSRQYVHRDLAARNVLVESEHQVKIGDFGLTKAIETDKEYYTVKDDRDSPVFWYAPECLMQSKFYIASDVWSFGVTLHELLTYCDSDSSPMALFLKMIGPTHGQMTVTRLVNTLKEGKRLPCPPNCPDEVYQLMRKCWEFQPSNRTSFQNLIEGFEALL

[3] = target: isolated recombinant JAK2 kinase domain (Homo sapiens (Human), UniProt O60674); experiment: JAK2 enzyme assay (Caliper LabChip, peptide phosphorylation); type: biochemical; conditions: 25 μM ATP
Sequence of isolated recombinant JAK2 kinase domain (O60674 849-1124): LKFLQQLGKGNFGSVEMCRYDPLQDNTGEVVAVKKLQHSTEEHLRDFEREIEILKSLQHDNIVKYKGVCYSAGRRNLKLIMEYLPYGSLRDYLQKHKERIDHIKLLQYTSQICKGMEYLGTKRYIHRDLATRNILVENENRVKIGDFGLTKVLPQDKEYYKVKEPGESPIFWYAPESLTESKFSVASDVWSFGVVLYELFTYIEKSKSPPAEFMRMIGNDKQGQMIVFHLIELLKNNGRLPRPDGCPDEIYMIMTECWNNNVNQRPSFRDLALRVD

Row | SMILES | EC50 [1] | Ki [2] | Ki [3]
1 | CN(CCOc1ccc(Br)cc1)C1CCN(C(=O)Cn2cc(NC(=O)c3cnn4cccnc34)c(-c3cc(Cl)ccc3OC(F)F)n2)CC1 [Example 104, N-[1-[2-[4-[2-(4-bromophenoxy)ethyl-methyl-amino]-1-piperidyl]-2-oxo-ethyl]-3-[5-chloro-2-(difluoromethoxy)phenyl]pyrazol-4-yl]pyrazolo[1,5-a]pyrimidine-3-carboxamide] | 20.2 nM | 0.93 nM | 2.11 nM
2 | CN(C)CC1CCN(C(=O)Cn2cc(NC(=O)c3cnn4cccnc34)c(-c3cc(Cl)ccc3OC(F)F)n2)CC1 [Example 70, N-[3-[5-chloro-2-(difluoromethoxy)phenyl]-1-[2-[4-[(dimethylamino)methyl]-1-piperidyl]-2-oxo-ethyl]pyrazol-4-yl]pyrazolo[1,5-a]pyrimidine-3-carboxamide] | 16.1 nM | 0.67 nM | 2.38 nM
3 | CN1CCN(CCCN2CCC(n3cc(NC(=O)c4c(N)nn5cccnc45)c(-c4cc(Cl)ccc4OC(F)F)n3)CC2)C1=O [Example 164, 2-amino-N-[3-[5-chloro-2-(difluoromethoxy)phenyl]-1-[1-[3-(3-methyl-2-oxo-imidazolidin-1-yl)propyl]-4-piperidyl]pyrazol-4-yl]pyrazolo[1,5-a]pyrimidine-3-carboxamide] | 5.6 nM | 0.44 nM | 0.06 nM
4 | O=C(Nc1sc(N2CCC(N3CC(F)C3)CC2)nc1-c1cc(Cl)ccc1OC(F)F)c1cnn2cccnc12 [Example 194, N-[4-[5-chloro-2-(difluoromethoxy)phenyl]-2-[4-(3-fluoroazetidin-1-yl)-1-piperidyl]thiazol-5-yl]pyrazolo[1,5-a]pyrimidine-3-carboxamide] | 17.4 nM | 2.28 nM | 1.44 nM
5 | CN1CC[C@H](n2cc(NC(=O)c3c(N)nn4cccnc34)c(-c3cc(Cl)ccc3OC(F)F)n2)C1 [Example 182, 2-amino-N-[3-[5-chloro-2-(difluoromethoxy)phenyl]-1-[(3S)-1-methylpyrrolidin-3-yl]pyrazol-4-yl]pyrazolo[1,5-a]pyrimidine-3-carboxamide] | 8.9 nM | 0.49 nM | 0.2 nM

More lines, in order of falling EC50 [1], values ahead:

Row | EC50 [1] | Ki [2] | Ki [3] | SMILES
6 | 14.2 nM | 1.14 nM | 3.33 nM | Cc1ccc(CN(C)C2CCN(C(=O)Cn3cc(NC(=O)c4cnn5cccnc45)c(-c4cc(Cl)ccc4OC(F)F)n3)CC2)c(C)c1 [Example 129, N-[3-[5-chloro-2-(difluoromethoxy)phenyl]-1-[2-[4-[(2,4-dimethylphenyl)methyl-methyl-amino]-1-piperidyl]-2-oxo-ethyl]pyrazol-4-yl]pyrazolo[1,5-a]pyrimidine-3-carboxamide]
7 | 13 nM | 0.93 nM | 0.56 nM | CN1CCN(C(=O)c2ccc(-c3nc(-c4cc(Cl)ccc4OC(F)F)c(NC(=O)c4cnn5cccnc45)s3)cc2)CC1 [Example 259, N-[4-[5-chloro-2-(difluoromethoxy)phenyl]-2-[4-(4-methylpiperazine-1-carbonyl)phenyl]thiazol-5-yl]pyrazolo[1,5-a]pyrimidine-3-carboxamide]
8 | 12.3 nM | 0.71 nM | 0.2 nM | Nc1nn2cccnc2c1C(=O)Nc1cn([C@H]2CCNC2)nc1-c1cc(Cl)ccc1OC(F)F [Example 186, 2-amino-N-[3-[5-chloro-2-(difluoromethoxy)phenyl]-1-[(3S)-pyrrolidin-3-yl]pyrazol-4-yl]pyrazolo[1,5-a]pyrimidine-3-carboxamide]
9 | 11 nM | 0.33 nM | 0.54 nM | N#CC1(CN2C[C@@H]3CN(C(=O)Cn4cc(NC(=O)c5cnn6cccnc56)c(-c5cc(Cl)ccc5OC(F)F)n4)C[C@@H]3C2)CCCCC1 [Example 47, N-[1-[2-[(3aS,6aR)-2-[(1-cyanocyclohexyl)methyl]-1,3,3a,4,6,6a-hexahydropyrrolo[3,4-c]pyrrol-5-yl]-2-oxo-ethyl]-3-[5-chloro-2-(difluoromethoxy)phenyl]pyrazol-4-yl]pyrazolo[1,5-a]pyrimidine-3-carboxamide]

Reference: patent publication US9346815B2, “5-chloro-2-difluoromethoxyphenyl pyrazolopyrimidine compounds, compositions and methods of use thereof” (Genentech, Inc., priority 2014, dated 2016)
